Assay results published in publication PMC7580834, “Inhibition mechanism of naphthylphenylamine derivatives acting on the CDC25B dual phosphatase and analysis of the molecular processes involved in the high cytotoxicity exerted by one selected derivative in melanoma cells” (Journal of Enzyme Inhibition and Medicinal Chemistry, 2020).

Legend:
caspase-3 in A375 cells = experiment: Caspase-3 fluorimetric activity assay in cell lysates; assay type: cell-based, human; conditions: 10 µM, 24 h
Procedure: (§1) The caspase-3 and caspase-9 enzymatic activity was measured by using caspase-3 and -9 fluorimetric assay kits, respectively, according to the manufacturer’s protocol. Briefly, cells were seeded into 75 cm^2 plates (2 × 10^6 cells/plate) and after 24 h treated with 4a or 0.5% (v/v) DMSO for 24 h. At the end of incubation, cells were collected, washed with phosphate-buffered saline constituted by 10 mM Na2HPO4, 2 mM KH2PO4, pH 7.4, supplemented with 137 mM NaCl and 2.7 mM KCl (PBS), and finally lysed at 4 °C in the cell lysis buffer. Cell lysates were incubated with 50 µM DEVD-AFC or LEHD-AFC substrates at 37 °C for 2 h, to detect caspase-3 or caspase-9 activity, respectively, using a Cary Eclipse spectrofluorimeter. Excitation and emission wavelengths were set at 400 nm and 505 nm, respectively; both excitation and emission slits were set at 10 nm.

caspase-3 in A2058 cells = experiment: as above; assay type: cell-based, human; conditions: 10 µM, 24 h
Procedure: as §1

CDC25B [1] = target: T1, CDC25B (Homo sapiens, UniProt P30305); experiment: Kinetic studies of CDC25B phosphatase inhibition (OMFP substrate); assay type: biochemical; conditions: putative from Lineweaver-Burk plots (ref 18), confirmed by the fluorescence studies of this work
T1 sequence (P30305 1-580): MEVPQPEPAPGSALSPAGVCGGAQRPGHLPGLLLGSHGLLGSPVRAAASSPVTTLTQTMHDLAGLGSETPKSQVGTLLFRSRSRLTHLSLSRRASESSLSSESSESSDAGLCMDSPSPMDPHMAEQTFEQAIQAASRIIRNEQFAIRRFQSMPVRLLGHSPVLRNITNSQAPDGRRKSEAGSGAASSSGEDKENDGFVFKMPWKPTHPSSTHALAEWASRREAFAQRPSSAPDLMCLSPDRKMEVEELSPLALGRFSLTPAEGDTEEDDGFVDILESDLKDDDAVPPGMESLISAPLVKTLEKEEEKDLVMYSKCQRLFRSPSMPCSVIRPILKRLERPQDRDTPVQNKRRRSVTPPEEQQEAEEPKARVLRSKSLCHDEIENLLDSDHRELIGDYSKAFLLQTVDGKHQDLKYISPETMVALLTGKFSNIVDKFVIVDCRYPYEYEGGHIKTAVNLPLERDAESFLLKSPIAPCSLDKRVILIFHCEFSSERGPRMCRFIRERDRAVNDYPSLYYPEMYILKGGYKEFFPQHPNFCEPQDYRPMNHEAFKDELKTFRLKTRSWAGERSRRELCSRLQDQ

CDC25B [2] = target: T2, CDC25B (Homo sapiens, UniProt P30305); experiment: Intrinsic fluorescence quenching of recombinant CDC25B catalytic domain (Stern-Volmer); assay type: binding
T2 sequence (P30305 377-551 isoform P30305-2 limits assumed): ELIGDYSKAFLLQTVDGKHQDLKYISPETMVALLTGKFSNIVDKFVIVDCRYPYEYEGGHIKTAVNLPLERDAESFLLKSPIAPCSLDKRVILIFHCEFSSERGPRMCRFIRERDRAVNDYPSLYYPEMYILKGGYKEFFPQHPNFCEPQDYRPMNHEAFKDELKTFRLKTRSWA
Procedure: (§2) Fluorescence spectra were recorded at 20 °C using a computer-assisted Cary Eclipse spectrofluorimeter (Varian, Palo Alto, CA, USA) equipped with an electronic temperature controller. The excitation wavelength was set at 280 nm and the excitation and emission slits were set at 10 and 20 nm, respectively. A 500 µL final volume of a 0.2 µM solution of CDC25B or CDC25B-C473S dissolved in 20 mM Tris•HCl, pH 7.8, 0.5 mM TCEP was directly prepared in the fluorimetric cuvette in the absence or in the presence of OMFP and/or some NPA derivatives. Serial pre-dilutions of the NPA derivatives or OMFP at increasing concentration were prepared in DMSO or methanol, respectively. Alongside, a convenient amount of the enzyme pre-dilution was prepared just before its usage for the experiment and stored on ice. When the combined effect of NPA derivative and OMFP was investigated, two enzyme pre-dilutions were prepared in the absence or in the presence of 5 µM OMFP. In order to evaluate the specific effect produced by any addition of solvent/ligand on the intrinsic fluorescence of the enzyme, 495 µL of the enzyme pre-dilution were placed in the fluorimetric cuvette and the relative spectrum was recorded; after the addition of 5 µL of each pre-dilution of solvent/ligand and fast mixing, the spectrum was recorded again. This procedure, repeated for each experimental point, allowed a normalisation of the specific effects produced by solvent/ligands. Furthermore, a correction was also applied for the little inner-filter effect due to the absorbance at 280 nm of the NPA derivative used at different concentrations; on the other hand, no correction was necessary for OMFP. All spectra, recorded at a scan speed of 120 nm/min, were normalised and corrected.

caspase-9 in A375 cells = experiment: Caspase-9 fluorimetric activity assay in cell lysates; assay type: cell-based, human; conditions: 10 µM, 24 h
Procedure: as §1

caspase-9 in A2058 cells = experiment: as above; assay type: cell-based, human; conditions: 10 µM, 24 h
Procedure: as §1

OMFP-bound CDC25B-C473S [3] = target: T3, OMFP-bound CDC25B-C473S (Homo sapiens, UniProt P30305, C487S); experiment: Intrinsic fluorescence quenching of CDC25B-C473S in the presence of 5 µM OMFP (Stern-Volmer); assay type: binding; conditions: reciprocal of KSV; presence of 5 µM OMFP; read-out: K′D of the complex, OMFP-bound CDC25B-C473S•inhibitor
T3 sequence (P30305 370-580 C487S): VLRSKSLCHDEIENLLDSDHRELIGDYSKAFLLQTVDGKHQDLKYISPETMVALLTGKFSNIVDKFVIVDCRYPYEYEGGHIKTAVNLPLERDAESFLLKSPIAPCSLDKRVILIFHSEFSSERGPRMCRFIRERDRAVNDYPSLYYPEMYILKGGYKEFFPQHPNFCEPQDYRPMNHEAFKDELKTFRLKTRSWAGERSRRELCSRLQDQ
From the text: (§3) The mutant form of CDC25B, carrying the C473S replacement (CDC25B-C473S), was obtained through site-directed mutagenesis of the CDC25B catalytic segment cloned in pET28a-CDC25B-cd. To this aim, the QuikChange site-directed mutagenesis kit (Stratagene, La Jolla, CA, USA) and the forward and reverse primers for C473S replacement (5′d-[…]-3′ and 5′d-[…]-3′) were used. Positive clones were obtained, and the nucleotide sequencing of the mutagenised segment excluded the presence of undesired mutations. The new vector was called pET28a-CDC25B-C473S-cd. The expression of the new vector and the purification of the recombinant form of CDC25B-C473S catalytic domain were carried out as previously reported for wild-type CDC25B catalytic domain[18], and similar yields were obtained. As expected, the mutant enzyme was unable to hydrolyse the synthetic substrate OMFP, when its activity was checked with the fluorimetric assay method previously described.
as §2

OMFP-bound CDC25B-C473S [4] = experiment: as above; assay type: binding
From the text: as §3, §2

CCOC(=O)c1cccc(Nc2cc(OC)cc3ccccc23)c1 [4a]
enzymatic activity of caspase-3 (caspase-3 in A375 cells): statistically significant increase
enzymatic activity of caspase-3 (caspase-3 in A2058 cells): statistically significant increase
Inhibition mechanism (CDC25B [1]): uncompetitive
KSV (Stern-Volmer constant) (CDC25B [2]; 0.2 µM wild-type CDC25B, emission 357 nm, 20 °C, no OMFP): 0.010 µM⁻¹
Kd (CDC25B [2]; reciprocal of KSV, inhibitor concentration leading to 50% quenching of CDC25B emission, read-out: K′D of the complex, Free CDC25B•inhibitor): > 50 µM
enzymatic activity of caspase-9 (caspase-9 in A375 cells): statistically significant increase
enzymatic activity of caspase-9 (caspase-9 in A2058 cells): statistically significant increase
Kd (OMFP-bound CDC25B-C473S [3]): 32 µM
KSV (Stern-Volmer constant) (OMFP-bound CDC25B-C473S [4]; 0.2 µM CDC25B-C473S, in the presence of 5 µM OMFP): 0.031 µM⁻¹
K′D/Ki ratio (OMFP-bound CDC25B-C473S [4]; K′D of OMFP-bound CDC25B-C473S•inhibitor over Ki): 3.8
